US20180185408A1, “ANTIFUNGAL NYLON-3 POLYMERS AND COMBINATION THERAPY USING THEM TO TREAT FUNGAL INFECTIONS” (priority 2016, published 2018)
≈ marks a conversion by molar mass, not a printed value. Where “and” joins values, the source holds several entries; their conditions need not be identical. Equal values may be shown once. Read-outs that look alike come from different tables or passages of the source.

Columns and labels:
[1] = tested on: Candida albicans; assay: MIC by broth microdilution (CLSI M27-A3); assay type: cell-based; parameters: polymer efficacy against budding yeasts, 50%: unit not given here; settings: for MIC: read-out: MIC
[2] = tested on: Candida lusitaniae; assay: MIC by broth microdilution (CLSI M27-A3); assay type: cell-based
[3] = tested on: Candida albicans; assay: Minimum fungicidal concentration (MFC), plating after MIC assay; assay type: cell-based
[4] = tested on: Candida lusitaniae; assay: as above; assay type: cell-based; settings: Clavispora lusitaniae, C. Lusitania (CL3), Sensitive; RPMI 1640 (0.2% Glucose); […]10^5 cells/mL; 30° C.; read-out: MFC
[5] = tested on: Cryptococcus neoformans; assay: MIC by broth microdilution (CLSI M27-A3); assay type: cell-based; settings: for MIC: […]10^3 cells/mL
[6] = tested on: Cryptococcus gattii; assay: MIC by broth microdilution (CLSI M27-A3); assay type: cell-based; settings: Cryptococcus gattii, […]10^3 cells/mL, read-out: MIC
[7] = tested on: Cryptococcus neoformans; assay: Minimum fungicidal concentration (MFC), plating after MIC assay; assay type: cell-based
[8] = tested on: Cryptococcus gattii; assay: as above; assay type: cell-based; settings: Cryptococcus gattii, Sensitive, RPMI 1640 (0.2% Glucose), […]10^3 cells/mL, 37° C., read-out: MFC
[9] = tested on: Candida spp.; assay: MIC and MFC by broth microdilution, summary over Candida strains; assay type: cell-based
[10] = tested on: Cryptococcus spp.; assay: MIC and MFC by broth microdilution, summary over Cryptococcus strains; assay type: cell-based
[11] = tested on: filamentous fungi; assay: MIC100 against non-Aspergillus filamentous fungi (CLSI M38-A2); assay type: cell-based
[12] = tested on: Aspergillus species; assay: MIC100 against 18 species of the Aspergillus genus; assay type: cell-based, Aspergillus spp.
Description: We assessed the antifungal activity of MM-TM, DM-TM, and NM against 18 different species within the genus Aspergillus.

Structure (SMILES): OC(Cn1cncn1)(Cn1cncn1)c1ccc(F)cc1F [FLC, fluconazole]
- MIC50 ([1]; ATCC90028, Candida albicans ATCC 90028): 1 µg/mL (≈ 3.27 µM)
- polymer efficacy against budding yeasts, 50% ([1]; C. albicans CA1, ATCC90028, Blood): 1
- polymer efficacy against budding yeasts, 50% ([1]; C. albicans CA2, SC5314): 0.25
- polymer efficacy against budding yeasts, 50% ([1]; C. albicans CA3, Blood, Azole resistant): >64
- MIC50 ([1]; Candida albicans CA3, Resistance Azole): > 64 µg/mL
- MIC ([1]; Candida albicans, C. albicans (E4), Amp B Resistant, RPMI 1640 (0.2% Glucose), […]10^5 cells/mL, 30° C.): > 200 µg/mL
- MIC ([1]; Candida albicans, C. albicans (E4), […]10^3 cells/mL, 35°C): > 654 µM
- MIC ([1]; Candida albicans, C. albicans (Gu5), Fluconazole Resistant, RPMI 1640 (0.2% Glucose), […]10^5 cells/mL, 30° C.): > 200 µg/mL
- MIC ([1]; Candida albicans, C. albicans (Gu5), […]10^3 cells/mL, 35°C): > 654 µM
- MIC ([1]; Candida albicans, C. albicans (K1), Fluconazole Resistant, RPMI 1640 (0.2% Glucose), […]10^5 cells/mL, 30° C.): > 200 µg/mL
- MIC ([1]; Candida albicans, C. albicans (K1), […]10^3 cells/mL, 35°C): > 654 µM
- MIC ([1]; Candida albicans, C. albicans (SCG5314), Sensitive, RPMI 1640 (0.2% Glucose), […]10^5 cells/mL, 30° C.): < 0.2 µg/mL
- MIC50 ([1]; Candida albicans, SC5314): 0.25 µg/mL (≈ 0.816 µM)
- MIC ([1]; Candida albicans, SC5314, C. albicans (SC5314), […]10^3 cells/mL, 35°C): > 654 µM
- MIC ([2]; CL3, […]10^3 cells/mL, 35°C, OD600 24 h, avg., listed as FLU): >200 µg/mL
- MIC ([2]; CL3, […]10^3 cells/mL, 35°C, OD600 24 h, avg., listed as FLU, read-out: MIC): >653.0 µM
- MIC ([2]; CL3, […]10^3 cells/mL, 35°C, OD600 24 h, trial 2, listed as FLU): >200 µg/mL
- MIC ([2]; CL3, […]10^3 cells/mL, 35°C, OD600 24 h, trial 2, listed as FLU, read-out: MIC): >653.0 µM
- MIC ([2]; CL3, […]10^5 cells/mL, 30°C, OD600 48 h, avg., listed as FLU): 0.8 µg/mL
- MIC ([2]; CL3, […]10^5 cells/mL, 30°C, OD600 48 h, avg., listed as FLU, read-out: MIC): 2.6 µM
- MIC ([2]; CL3, […]10^5 cells/mL, 30°C, OD600 48 h, trial 2, listed as FLU): 0.8 µg/mL
- MIC ([2]; CL3, […]10^5 cells/mL, 30°C, OD600 48 h, trial 2, listed as FLU, read-out: MIC): 2.6 µM
- MIC ([2]; Clavispora lusitaniae, 24 h, read-out: MIC): > 200 µg/mL and > 653 µM
- MIC ([2]; Clavispora lusitaniae, 48 h, read-out: MIC): 0.8 µg/mL and 2.6 µM
- MFC ([3]; C. albicans (E4), Amp B Resistant, RPMI 1640 (0.2% Glucose), […]10^5 cells/mL, 30° C.): >200 µg/mL
- MFC ([3]; C. albicans (Gu5), Fluconazole Resistant, RPMI 1640 (0.2% Glucose), […]10^5 cells/mL, 30° C.): >200 µg/mL
- MFC ([3]; C. albicans (K1), Fluconazole Resistant, RPMI 1640 (0.2% Glucose), […]10^5 cells/mL, 30° C.): >200 µg/mL
- MFC ([3]; C. albicans (SCG5314), Sensitive, RPMI 1640 (0.2% Glucose), […]10^5 cells/mL, 30° C.): >200 µg/mL
- MFC ([3]; Candida albicans, SC5314, read-out: MFC): > 200 µg/mL and > 653 µM
- MFC ([3]; Candida albicans, read-out: MFC): > 200 µg/mL and > 653 µM
- MFC ([3]; E4, […]10^5 cells/mL, 30°C, avg., listed as FLU): >200 µg/mL
- MFC ([3]; E4, […]10^5 cells/mL, 30°C, avg., listed as FLU, read-out: MFC): >653 µM
- MFC ([3]; E4, […]10^5 cells/mL, 30°C, trial 1, listed as FLU): >200 µg/mL
- MFC ([3]; E4, […]10^5 cells/mL, 30°C, trial 1, listed as FLU, read-out: MFC): >653 µM
- MFC ([3]; E4, […]10^5 cells/mL, 30°C, trial 2, listed as FLU): >200 µg/mL
- MFC ([3]; E4, […]10^5 cells/mL, 30°C, trial 2, listed as FLU, read-out: MFC): >653 µM
- MFC ([3]; Gu5, […]10^5 cells/mL, 30°C, avg., listed as FLU): >200 µg/mL
- MFC ([3]; Gu5, […]10^5 cells/mL, 30°C, avg., listed as FLU, read-out: MFC): >653 µM
- MFC ([3]; Gu5, […]10^5 cells/mL, 30°C, trial 1, listed as FLU): >200 µg/mL
- MFC ([3]; Gu5, […]10^5 cells/mL, 30°C, trial 1, listed as FLU, read-out: MFC): >653 µM
- MFC ([3]; Gu5, […]10^5 cells/mL, 30°C, trial 2, listed as FLU): >200 µg/mL
- MFC ([3]; Gu5, […]10^5 cells/mL, 30°C, trial 2, listed as FLU, read-out: MFC): >653 µM
- MFC ([3]; K1, […]10^5 cells/mL, 30°C, avg., listed as FLU): >200 µg/mL
- MFC ([3]; K1, […]10^5 cells/mL, 30°C, avg., listed as FLU, read-out: MFC): >653 µM
- MFC ([3]; K1, […]10^5 cells/mL, 30°C, trial 2, listed as FLU): >200 µg/mL
- MFC ([3]; K1, […]10^5 cells/mL, 30°C, trial 2, listed as FLU, read-out: MFC): >653 µM
- MFC ([3]; SC5314, […]10^5 cells/mL, 30°C, avg., listed as FLU): >200 µg/mL
- MFC ([3]; SC5314, […]10^5 cells/mL, 30°C, avg., listed as FLU, read-out: MFC): >653 µM
- MFC ([3]; SC5314, […]10^5 cells/mL, 30°C, trial 1, listed as FLU): >200 µg/mL
- MFC ([3]; SC5314, […]10^5 cells/mL, 30°C, trial 1, listed as FLU, read-out: MFC): >653 µM
- MFC [4]: 50 µg/mL (≈ 163 µM)
- polymer efficacy against budding yeasts, 50% [5]: >64
- polymer efficacy against budding yeasts, 50% ([5]; C. neoformans CN1, Clinical isolate, Azole susceptible): 4
- MIC ([5]; Cryptococcus neoformans, 48 h, C21F3, 30°C, OD600 48 h): 1.6 µg/mL
- MIC ([5]; Cryptococcus neoformans, 48 h, C21F3, 30°C, OD600 48 h, Table 15): 5.2 µM
- MIC ([5]; Cryptococcus neoformans, 48 h, H99, 30°C, OD600 48 h): 3.1 µg/mL
- MIC ([5]; Cryptococcus neoformans, 48 h, H99, 30°C, OD600 48 h, Table 15): 10.1 µM
- MIC ([5]; Cryptococcus neoformans, 48 h, JEC21, 30°C, OD600 48 h): 1.6 µg/mL
- MIC ([5]; Cryptococcus neoformans, 48 h, JEC21, 30°C, OD600 48 h, Table 15): 5.2 µM
- MIC ([5]; Cryptococcus neoformans, C. neoformans (C21F3), 30°C): 5.2 µM
- MIC ([5]; Cryptococcus neoformans, C. neoformans (H99), Sensitive, RPMI 1640 (0.2% Glucose), 37° C.): 3.1 µg/mL
- MIC ([5]; Cryptococcus neoformans, C. neoformans (H99), 30°C): 10.1 µM
- MIC ([5]; Cryptococcus neoformans, C. neoformans (JEC21), Sensitive, RPMI 1640 (0.2% Glucose), 37° C.): 1.6 µg/mL
- MIC ([5]; Cryptococcus neoformans, C. neoformans (JEC21), 30°C): 5.2 µM
- MIC50 ([5]; Cryptococcus neoformans, Cryptococcus neoformans CN1): 4 µg/mL (≈ 13.1 µM)
- MIC ([6]; 48 h, C751, 30°C, OD600 48 h, Table 15): 5.2 µM
- MIC ([6]; 48 h, C751, 30°C, OD600 48 h): 1.6 µg/mL
- MIC ([6]; 48 h, WM276, 30°C, OD600 48 h, Table 15): 2.6 µM
- MIC ([6]; 48 h, WM276, 30°C, OD600 48 h): 0.8 µg/mL
- MIC ([6]; C. gattii (C751), Sensitive, RPMI 1640 (0.2% Glucose), 37° C.): 1.6 µg/mL
- MIC ([6]; C. gattii (C751), 30°C): 5.2 µM
- MIC ([6]; C. gattii (WM275), Sensitive, RPMI 1640 (0.2% Glucose), 37° C.): 0.8 µg/mL
- MIC ([6]; C. gattii (WM276), 30°C): 2.6 µM
- concentration at which strain was killed (MFC) ([7]; C21F3): ~5 µM
- MFC ([7]; Cryptococcus neoformans, C. neoformans (C21F3), Rapamycin Resistant, RPMI 1640 (0.2% Glucose), […]10^3 cells/mL, 37° C.): 1.6 µg/mL (≈ 5.22 µM)
- MFC ([8]; C. gattii (C751)): 37.5 µg/mL (≈ 122 µM)
- MFC ([8]; C. gattii (WM275)): > 100 µg/mL
- MFC ([9]; Candida resistant strains (totally resistant)): > 654 µM
- MIC and MFC values ([9]; Candida sensitive strains): low μM
- MIC ([10]; Cryptococcus): ≤ 10 µM
- MFC ([10]; Cryptococcus test strains (FLC: all strains except C21F3), read-out: MFC): > 100 µM
- MIC50 ([11]; Cryptococcus depauperatus, CBS7855, Filobasidiella depauperata isolate CBS 7855, 50% reduction in growth): 64 µg/mL (≈ 209 µM)

Structure (SMILES): CCC(C)n1ncn(-c2ccc(N3CCN(c4ccc(OCC5COC(Cn6cncn6)(c6ccc(Cl)cc6Cl)O5)cc4)CC3)cc2)c1=O (stereo not shown) [Itraconazole, itraconazole]
- MIC ([12]; Aspergillus aculeatus isolate CBS 172.66): < 1 µg/mL
- MIC ([12]; Aspergillus brasiliensis isolate CBS 101740): 64 µg/mL (≈ 90.7 µM)
- MIC ([12]; Aspergillus carbonarius isolate DT0115-B6): < 1 µg/mL
- MIC ([12]; Aspergillus clavatus isolate CBS 513.65): 64 µg/mL (≈ 90.7 µM)
- MIC ([12]; Aspergillus fumigatus isolate CEA10): < 1 µg/mL
- MIC ([12]; Aspergillus glaucus isolate CBS 516.65): 2 µg/mL (≈ 2.83 µM)
- MIC ([12]; Aspergillus nidulans isolate FGSCA4): < 1 µg/mL
- MIC ([12]; Aspergillus niger isolate CBS 113.46): < 1 µg/mL
- MIC ([12]; Aspergillus oryzae isolate Rib40): 1 µg/mL (≈ 1.42 µM)
- MIC ([12]; Aspergillus parasiticus isolate Su-1): < 1 µg/mL
- MIC ([12]; Aspergillus sydowii isolate CBS 593.65): 2 µg/mL (≈ 2.83 µM)
- MIC ([12]; Aspergillus terreus isolate NCCB IH2626): < 1 µg/mL
- MIC ([12]; Aspergillus versicolor isolate CBS 795.97): 1 µg/mL (≈ 1.42 µM)
- MIC ([12]; Aspergillus wentii isolate DT0136-E9): < 1 µg/mL
- MIC ([12]; Aspergillus zonatus isolate CBS 506.65): < 1 µg/mL
- MIC ([12]; Neosartorya fischeri isolate CBS 544.65): > 8 µg/mL
- MIC ([11]; Penicillium expansum): 1 µg/mL (≈ 1.42 µM)
- MIC ([11]; Talaromyces marneffei): 0.125 µg/mL (≈ 0.177 µM)
